Patent US20030086987A1, “Salvianolic acid B” (priority 2001, published 2003)

Legend:
[1] = system: New Zealand White rabbits; experiment: Intima/media area ratio in cholesterol-fed rabbits after femoral artery denudation; assay type: in vivo; conditions: 2% cholesterol diet, six weeks, probucol 1.5 g/day, salvianolic acid B 375 mg/day; for ratio of the intima area to the media area, thoracic aorta section: CT group 0.1; for ratio of the intima area to the media area, aortic arch section: CT group 0.22; for ratio of the intima area to the media area, abdominal aorta section: CT group 0.58
Method: New Zealand White rabbits were randomly divided into three groups. […] Another group was fed with the control diet containing 1.5 g/day probucol (P group), and the third group was fed with the control diet containing 375 mg/day salvianolic acid B (Sal B group). After being fed for three weeks, all rabbits underwent a femoral artery denudation. After the operation, the diet fed to each group was maintained for anther three weeks. […] Thin sections (5 μm thick) were stained with Mayer's hematoxylin-eosin solution. […] See, e.g., Gordon et al. (1992) Proc […] USA 89: 11312-11316. In the CT group, the ratio of the intima area to the media area of the aortic arch section was 0.22 (±0.04).

IL-1ra = experiment: Inhibition of oxLDL induced IL-1ra production in HASMCs, sandwich ELISA; assay type: cell-based, Human; conditions: 1, 2.5 and 10 μg/mL for 24 hr, then 20 μg/mL oxLDL for 24 hr
Method: (§1) Human aortic smooth muscle cells (HASMCs, Cascade Biologics, Inc. Portland, Oreg.) were cultured in Medium 231 (Cascade Biologics, Inc.), supplemented with 5% smooth muscle growth serum (SMGS), 100 untis/mL penicillin, 100 μg/mL streptomycin, 1.25 μ/mL Fungizone (amphotericin B) at 37° C. in 5% CO2 saturated humidity atmosphere. The medium was changed every 4 days, and cells were detached by treatment with 0.05% trypsin, 0.02% EDTA solutions. […] Before each experiment, the medium was removed, and cells were washed and then cultured in serum-free medium containing the supplements indicated above but without SMGS. […] IL-1 production was determined with a sandwich ELISA using anti-IL-1 antibodies (e.g., IL-1β and IL-1ra ELISA kits from R&D Systems and Endogen, Inc. respectively).

[2] = system: Human aortic smooth muscle cells (HASMCs); experiment: Rescue of oxLDL induced cell death, MTT assay; assay type: cell-based; conditions: then 40 μg/mL oxLDL for 24 hr, oxLDL alone 23.5%
Method: Human aortic smooth muscle cells (HASMCs, Cascade Biologics, Inc. Portland, Oreg.) were cultured in Medium 231 (Cascade Biologics, Inc.), supplemented with 5% smooth muscle growth serum (SMGS), 100 untis/mL penicillin, 100 μg/mL streptomycin, 1.25 μ/mL Fungizone (amphotericin B) at 37° C. in 5% CO2 saturated humidity atmosphere. The medium was changed every 4 days, and cells were detached by treatment with 0.05% trypsin, 0.02% EDTA solutions. […] Before each experiment, the medium was removed, and cells were washed and then cultured in serum-free medium containing the supplements indicated above but without SMGS. […] Then, 40 μg/mL oxLDL was added to the incubated medium for another 24 hr. The cytotoxic effect can be determined using the 3-(4,5-dimethylthiazol-2-yl)-2,5-diphenyltetrazolium bromide (MTT) assay method described in Boyd (In Principle of Practice of Oncology, […]., and Rosenberg, S. A. (Eds) Vol. 3, PPO Update, No. 10, 1989).

IL-1β = experiment: Inhibition of oxLDL induced IL-1β production in HASMCs, sandwich ELISA; assay type: cell-based, Human; conditions: 1, 2.5 and 10 μg/mL for 24 hr, then 20 μg/mL oxLDL for 24 hr
Method: as §1

apoE (−) mice = experiment: Atherosclerotic area in the apoE (−) mice; assay type: in vivo; conditions: 0.15% cholesterol diet with 0.25% salvianolic acid B or 2% SAGE, 113 days
Method: 25-week apoE (−) mice from Jackson Laboratory were randomly divided into three groups. Animals in the control group (CT group) were fed with a diet containing 0.15% cholesterol (w/w) (a control diet). Second group (SB group) was fed with the control diet containing 0.25% salvianolic acid B (w/w); and third group (SAGE group) was fed with the control diet containing 2% SAGE (w/w). The feeding period was 113 days. SAGE was prepared as follows:
Salvia miltiorrhiza extract was obtained from extracts of the sliced and ground roots of Salvia miltiorrhiza by using an aqueous ethanol solution (water: ethanol =4:1, v/v). The weight to volume ration of Salvia miltiorrhiza to extraction solvent was 1:10 (w/v).
Angelica sinensis extract was obtained from ethanolic extracts (1:10, w/v).
Glycyrrhizae radix (Glycyrrhiza uralensis) extract was obtained from ethanolic extracts (1:10, w/v).
The weight ratio of Salvia miltiorrhiza extract, Angelica sinensis extract, and Glycyrrhiza uralensis extract was 2:1:1, respectively, based on the dried weights of the raw herbs used.

caspase-3 = experiment: Inhibition of oxLDL induced caspase-3 activation, Western blot in HASMCs; assay type: cell-based, Human; conditions: 1 or 10 μg/mL for 24 hr, then 20 μg/mL oxLDL for 24 hr
Method: Human aortic smooth muscle cells (HASMCs, Cascade Biologics, Inc. Portland, Oreg.) were cultured in Medium 231 (Cascade Biologics, Inc.), supplemented with 5% smooth muscle growth serum (SMGS), 100 untis/mL penicillin, 100 μg/mL streptomycin, 1.25 μ/mL Fungizone (amphotericin B) at 37° C. in 5% CO2 saturated humidity atmosphere. The medium was changed every 4 days, and cells were detached by treatment with 0.05% trypsin, 0.02% EDTA solutions. […] Before each experiment, the medium was removed, and cells were washed and then cultured in serum-free medium containing the supplements indicated above but without SMGS. […] The sample solution was heated at 100° C. for 5 min, cooled down to room temperature, and subjected to 12% SDS-polyacrylamide gel electrophoresis. Then, proteins were transferred to PVDF membranes, blocked with 5% nonfat milk in Tris-buffered saline-Tween 20 (0.1%) at room temperature for 2 hr, and incubated overnight at 4° C. with […] anti-caspase-3 antibody (dilution 1:1000). The membranes were washed three times in Tris-buffered saline-Tween 20, and antibody reactions were detected using horseradish peroxidase-conjugated goat anti-rabbit IgG (0.2 μg/mL) and LumiGLO chemiluminescent detection reagents (Bradford (1976) Analytical Biochem 72: 248-254). Activated caspase-3 (17 kD) was detected in HASMCs after oxLDL treatment.

Compound | ratio of the intima area to the media area, thoracic aorta section [1] | ratio of the intima area to the media area, aortic arch section [1] | ratio of the intima area to the media area, abdominal aorta section [1] | oxLDL induced IL-1ra production (IL-1ra) | cell viability of the HASMCs ([2]; 1 μg/mL for 24 hr) | cell viability of the HASMCs ([2]; 1.25 μg/mL for 24 hr) | cell viability of the HASMCs ([2]; 10 μg/mL for 24 hr) | cell viability of the HASMCs ([2]; 20 μg/mL for 24 hr) | oxLDL induced IL-1β production (IL-1β) | Inhibition (%) of atherosclerosis compared with control group (apoE (−) mice) | Intima area (apoE (−) mice; mean ± S.D.) | Media area (apoE (−) mice; mean ± S.D.) | Intima/Media (ratio) (apoE (−) mice; mean ± S.D., CT 0.770) | activated caspase-3 (17 kD) after oxLDL treatment (caspase-3)
CC(C)(Sc1cc(C(C)(C)C)c(O)c(C(C)(C)C)c1)Sc1cc(C(C)(C)C)c(O)c(C(C)(C)C)c1 [probucol, reference compound] | about 0.03 | about 0.1 | about 0.33 | – | – | – | – | – | – | – | – | – | – | –
O=C(/C=C/c1ccc(O)c2c1[C@H](C(=O)O[C@H](Cc1ccc(O)c(O)c1)C(=O)O)[C@@H](c1ccc(O)c(O)c1)O2)O[C@H](Cc1ccc(O)c(O)c1)C(=O)O [salvianolic acid B] | about 0.02 | about 0.07 | about 0.26 | inhibit | 68.3% (±5.3%) | 57.5% (±14.4%) | 57.6% (±18.7%) | 38.3% (±18.8%) | inhibit | 83% | 1,563 ± 2,504 10^3 μm^2 | 9,763 ± 2,239 10^3 μm^2 | 0.128 ± 0.170 | no activated caspase-3 was observed
